Data on twelve compounds can be found in patent US12552806B2, “Androgen receptor regulation by small molecule enantiomers” (University of Southern California, priority 2020, dated 2026).

Where two headings read alike, the source gives them in different places. A value given as a limit tells only on which side of the number the result lay.

The target in one test is T1, AR (Rattus norvegicus, UniProt P15207).
T1 construct: purchased Thermo Fisher Scientific
T1 sequence (P15207 646-902 limits assumed): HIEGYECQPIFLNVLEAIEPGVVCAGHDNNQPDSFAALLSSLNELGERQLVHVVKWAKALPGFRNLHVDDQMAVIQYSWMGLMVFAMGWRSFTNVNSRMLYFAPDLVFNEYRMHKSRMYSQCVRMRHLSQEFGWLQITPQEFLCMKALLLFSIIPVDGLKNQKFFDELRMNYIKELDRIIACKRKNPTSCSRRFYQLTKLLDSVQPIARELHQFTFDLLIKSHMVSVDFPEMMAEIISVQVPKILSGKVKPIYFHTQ
In words: AR binding, PolarScreen AR Competitor Assay (fluorescence polarization). As to the method: AR Binding. Ligand binding was analyzed using the PolarScreen AR Competitor Assay Kit, Green, according to the manufacturer's instructions (Thermo Fisher Scientific). Fluorescence polarization was measured after a 4-h incubation using an EnVision 2103 Multilabel Plate Reader (PerkinElmer).
Background: In fluorescence polarisation assays a small probe gives low polarisation when free and higher when bound to something large.

A further test has as its target T2, AR T878A (Homo sapiens, UniProt P10275, T878A).
T2 construct: LNCaP cells expressing AR T878A; endogenous in cells; host or cells: LNCaP-luc (LNCaP stably carrying the Cignal Lenti AR Reporter)
T2 sequence (P10275 1-920 T878A): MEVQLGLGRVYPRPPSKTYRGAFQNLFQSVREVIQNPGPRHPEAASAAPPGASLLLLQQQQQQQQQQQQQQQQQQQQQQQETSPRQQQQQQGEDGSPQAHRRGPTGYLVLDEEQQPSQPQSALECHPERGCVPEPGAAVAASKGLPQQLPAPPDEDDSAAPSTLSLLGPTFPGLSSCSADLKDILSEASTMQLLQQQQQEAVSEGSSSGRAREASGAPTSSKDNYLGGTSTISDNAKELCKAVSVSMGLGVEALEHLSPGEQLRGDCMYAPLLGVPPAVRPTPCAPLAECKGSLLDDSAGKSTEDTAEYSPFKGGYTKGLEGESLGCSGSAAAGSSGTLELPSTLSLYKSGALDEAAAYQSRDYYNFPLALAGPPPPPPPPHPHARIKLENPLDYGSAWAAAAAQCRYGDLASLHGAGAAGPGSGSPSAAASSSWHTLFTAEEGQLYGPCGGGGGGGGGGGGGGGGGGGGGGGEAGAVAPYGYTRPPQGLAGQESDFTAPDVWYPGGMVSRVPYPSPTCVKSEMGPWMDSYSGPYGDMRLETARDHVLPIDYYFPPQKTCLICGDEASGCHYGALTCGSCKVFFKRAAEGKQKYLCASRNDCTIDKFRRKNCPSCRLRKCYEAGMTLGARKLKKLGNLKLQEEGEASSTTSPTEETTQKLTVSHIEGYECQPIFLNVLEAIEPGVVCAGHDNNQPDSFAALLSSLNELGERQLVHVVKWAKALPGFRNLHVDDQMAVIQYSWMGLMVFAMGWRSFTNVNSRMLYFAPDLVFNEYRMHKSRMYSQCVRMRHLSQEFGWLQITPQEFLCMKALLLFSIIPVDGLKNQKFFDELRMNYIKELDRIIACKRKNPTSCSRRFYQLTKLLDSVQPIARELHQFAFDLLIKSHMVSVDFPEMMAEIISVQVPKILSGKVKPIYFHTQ
In words: cell-based. It counts as cell-based. An excerpt: We generated a LNCaP cell line stably expressing luciferase controlled by androgen response elements (ARE-luciferase).
Cell Culture and Treatments. The LNCaP cell line were obtained from ATCC, cultured in RPMI1640 (Corning) supplemented with 10% heat-inactivated GemCell bovine serum (Gemini Bio-Products) and Penicillin-Streptomycin (Gemini Bio-Products). Cell lines stably expressing ARE-luciferase (LNCaP-luc) was generated using Cignal Lenti AR Reporter (Qiagen) and was continuously cultured with 500 ng/mL Puromycin (Gibco) for positive selection. Cells were maintained at 37° C. in a humidified incubator with 5% carbon dioxide. All cell lines were authenticated using NIST approved short tandem repeat (STR) DNA profiling performed by the University of Arizona Genetics Core and routinely tested negative for mycoplasma.
Luciferase assay. LNCaP-luc cells were seeded in clear flat bottom white polystyrene 96-well plates (Corning) at a density of 12,000 cells/well. […] Dose-response curves were fit using the delta method and t-distribution (n=1). Compounds are tested up to 10 μM.

The subject of another test is VCaP cells. In words: VCaP viability assay (CellTiter-Glo). It counts as cell-based. Particulars: Homo sapiens, VCaP. On the procedure: PC3 and VCaP cell lines were obtained from ATCC and cultured as recommended. Generation and culture of PC3 GFP-AR cells were described previously (14). ARE-luciferase cells were generated using Cignal Lenti AR Reporter (Qiagen). Cell lines were authenticated using NIST-approved short tandem repeat DNA profiling and tested negative for mycoplasma. Drug treatments were conducted after overnight culture in phenol red-free media supplemented with charcoal:dextran stripped FBS.
Luminometer Assays. For ARE-luciferase, luciferase substrate was added to lysed cells after 24-h treatment. For viability, cells were lysed with CellTiter-Glo 3D Cell Viability Assay (Promega) after 6 d of treatment. Measurements were performed in 96-well plates (Corning) using a GloMax 96 Microplate Luminometer (Promega).
Background: ATP-based viability assays read luminescence as a measure of living cells.

The IC50 is the point on the concentration scale where inhibition reaches its midpoint. As usually defined, the Emax is the greatest response seen or fitted, relative to the assay's reference. On to “3-(4-acetylpiperazin-1-yl)-N-((3aR,4R,5R,7R,7aS)-2-(4-cyano-3-(trifluoromethyl)phenyl)-4,7-dimethyl-1,3-dioxooctahydro-1H-4,7-epoxyisoindol-5-yl)propenamide [EITM-1716]”, for which, on AR, the “binding to AR in vitro, in words” value was “did not bind AR”. For the same compound, the IC50 at AR (printed inside the ED50 cell of Table 2, read-out: IC50 (No binding)) is greater than 5000 nM. For the same compound, at AR T878A, the ED50 entry was “No binding (IC50 > 5 μM)” and the Emax entry is given as “No binding”.

In the test with VCaP cells, `C[C@]12O[C@](C)(C[C@H]1NC(=O)c1c[nH]c3ccccc13)[C@H]1C(=O)N(c3ccc(C#N)c(C(F)(F)F)c3)C(=O)[C@H]12` [(R)-1720] returned an IC50 of 160 nM.

In general, EC50 refers to the concentration needed to bring the measured effect to its halfway point. `CC(=O)c1cc(C(=O)N[C@@H]2C[C@@]3(C)O[C@]2(C)[C@@H]2C(=O)N(c4ccc(C#N)c(C(F)(F)F)c4)C(=O)[C@@H]23)n[nH]1` [EITM-1703, 5-acetyl-N-((3aR,4R,5R,7R,7aS)-2-(4-cyano-3-(trifluoromethyl)phenyl)-4,7-dimethyl-1,3-dioxooctahydro-1H-4,7-epoxyisoindol-5-yl)-1H-pyrazole-3-carboxamide]: on AR T878A, the “AR agonism / antagonism in LNCaP ARE-luciferase, in words” value (from here on “AR agonism / antagonism”) is reported as “robust antagonistic activities without notable agonism” and the EC50 worked out at 1700 nM. Moreover, at AR T878A (LNCaP), the Emax came to 20%.

Consider `CC(O)c1cc(C(=O)N[C@@H]2C[C@@]3(C)O[C@]2(C)[C@@H]2C(=O)N(c4ccc(C#N)c(C(F)(F)F)c4)C(=O)[C@@H]23)n[nH]1` (stereo partly drawn) [EITM-1704, N-((3aR,4R,5R,7R,7aS)-2-(4-cyano-3-(trifluoromethyl)phenyl)-4,7-dimethyl-1,3-dioxooctahydro-1H-4,7-epoxyisoindol-5-yl)-5-(1-hydroxyethyl)-1H-pyrazole-3-carboxamide], for which, on AR T878A, the “AR agonism / antagonism” value is given as “robust antagonistic activities without notable agonism” and the midpoint of the response, the EC50, lay at 3700 nM. This compound also yielded an Emax at AR T878A (LNCaP) of 11%.

In the case of `CCS(=O)(=O)N[C@@H]1C[C@@]2(C)O[C@]1(C)[C@@H]1C(=O)N(c3ccc(C#N)c(C(F)(F)F)c3F)C(=O)[C@@H]12` [EITM-1705, N-((3aR,4R,5R,7R,7aS)-2-(4-cyano-2-fluoro-3-(trifluoromethyl)phenyl)-4,7-dimethyl-1,3-dioxooctahydro-1H-4,7-epoxyisoindol-5-yl)ethanesulfonamide], on AR T878A, the “AR agonism / antagonism” value was “displayed notable AR agonism”; the ED50 result was “agonist”; the Emax entry is recorded as “agonist”.

For the compound `C[C@]12O[C@](C)(C[C@H]1n1cc(CCO)nn1)[C@H]1C(=O)N(c3ccc(C#N)c(C(F)(F)F)c3)C(=O)[C@H]12` [EITM-1706, 4-((3aR,4R,5R,7R,7 aS)-5-(4-(2-hydroxyethyl)-1H-1,2,3-triazol-1-yl)-4,7-dimethyl-1,3-dioxooctahydro-2H-4,7-epoxyisoindol-2-yl)-2-(trifluoromethyl)benzonitrile], the “binding to AR in vitro, in words” value on AR is recorded as “did not bind to AR”. At AR T878A, the ED50 entry was “No binding” and the Emax entry is given as “No binding”.

As to `CCS(=O)(=O)Nc1ccc2c(c1)C(=O)N(c1ccc(C#N)c(C(F)(F)F)c1)C2=O` [EITM-1708, N-(2-(4-cyano-3-(trifluoromethyl)phenyl)-1,3-dioxoisoindolin-5-yl)ethanesulfonamide], on AR, the “binding to AR in vitro, in words” value is “did not bind to AR”. Besides, at AR T878A, the ED50 result is reported as “No binding” and the Emax entry is “No binding”.

Regarding `C[C@]12O[C@](C)(C[C@H]1NC(=O)c1n[nH]c3ccccc13)[C@H]1C(=O)N(c3ccc(C#N)c(C(F)(F)F)c3)C(=O)[C@H]12` [EITM-1709, N-((3aR,4R,5R,7R,7 aS)-2-(4-cyano-3-(trifluoromethyl)phenyl)-4,7-dimethyl-1,3-dioxooctahydro-1H-4,7-epoxyisoindol-5-yl)-1H-indazole-3-carboxamide], the “binding to AR in vitro, in words” value at AR is recorded as “appeared to accommodate”. Further, the EC50 at AR T878A came to 328 nM. Further, at AR T878A (LNCaP), the Emax stood at 1%.

Consider `C[C@]12O[C@](C)(C[C@H]1NC(=O)c1cc(-c3cccs3)[nH]n1)[C@H]1C(=O)N(c3ccc(C#N)c(C(F)(F)F)c3)C(=O)[C@H]12` [EITM-1710, N-((3aR,4R,5R,7R,7aS)-2-(4-cyano-3-(trifluoromethyl)phenyl)-4,7-dimethyl-1,3-dioxooctahydro-1H-4,7-epoxyisoindol-5-yl)-5-(thiophen-2-yl)-1H-pyrazole-3-carboxamide], for which the “binding to AR in vitro, in words” value on AR is reported as “appeared to accommodate”. A half-maximal effect at AR T878A (EC50) was put at 2430 nM. In addition, the Emax on AR T878A (LNCaP) was 8%.

Take `C[C@]12O[C@](C)(C[C@H]1NC(=O)c1cc(-c3ccco3)[nH]n1)[C@H]1C(=O)N(c3ccc(C#N)c(C(F)(F)F)c3)C(=O)[C@H]12` [EITM-1711, N-((3aR,4R,5R,7R,7 aS)-2-(4-cyano-3-(trifluoromethyl)phenyl)-4,7-dimethyl-1,3-dioxooctahydro-1H-4,7-epoxyisoindol-5-yl)-5-(furan-2-yl)-1H-pyrazole-3-carboxamide]: the “binding to AR in vitro, in words” value on AR is “appeared to accommodate”. This compound yielded an EC50 at AR T878A of 535 nM. On AR T878A (LNCaP), this compound yielded an Emax of 1%.

Take `Cc1c(N2C(=O)[C@@H]3[C@H](C2=O)[C@@]2(C)C[C@@H](NC(=O)c4cc(C(C)O)[nH]n4)[C@]3(C)O2)ccc(C#N)c1C(F)(F)F` (stereo partly drawn) [EITM-1712, N-((3aR,4R,5R,7R,7 aS)-2-(4-cyano-2-methyl-3-(trifluoromethyl)phenyl)-4,7-dimethyl-1,3-dioxooctahydro-1H-4,7-epoxyisoindol-5-yl)-5-(1-hydroxyethyl)-1H-pyrazole-3-carboxamide]: on AR T878A, the “AR agonism / antagonism” value is recorded as “pure antagonists” and the EC50 stood at 2130 nM. This compound had an Emax on AR T878A (LNCaP) of 38%.

Turning to `CC(=O)N1CCC(C(=O)N[C@@H]2C[C@@]3(C)O[C@]2(C)[C@@H]2C(=O)N(c4ccc(C#N)c(C(F)(F)F)c4)C(=O)[C@@H]23)CC1` [EITM-1717, 1-acetyl-N-((3aR,4R,5R,7R,7aS)-2-(4-cyano-3-(trifluoromethyl)phenyl)-4,7-dimethyl-1,3-dioxooctahydro-1H-4,7-epoxyisoindol-5-yl)piperidine-4-carboxamide], on AR, the “binding to AR in vitro, in words” value is reported as “did not bind AR”. At AR T878A, the ED50 entry was “No binding” and the Emax result is recorded as “No binding”.
